Data: ChEMBL document CHEMBL4038308, “Lipophosphonoxins II: Design, Synthesis, and Properties of Novel Broad Spectrum Antibacterial Agents” (J Med Chem, 2017)
Converted amounts (≈) assume the structure as drawn. The source made the active and inactive calls. The rule behind the calls is not given here.

Tests used:
Escherichia coli [1] = experiment: Antibacterial activity against Escherichia coli 16702 after 24 hrs by microdilution method; assay type: functional; details: Escherichia coli, 16702, 24 h
HepG2 [2] = experiment: Induction of apoptosis in human HepG2 cells assessed as caspase 3/7 activation up to 80 mg/L after 4 hrs by caspase-Glo 3/7 luminescent assay; assay type: cell-based; details: hepg2, 4 h
[3] = Chemical stability of compound at 50 to 500 mg/L at pH 0.18 after 24 hrs at room temperature by LC-MS analysis; assay type: physicochemical; details: buffer, pH 0.18, 24 h
Streptococcus agalactiae = experiment: Antibacterial activity against Streptococcus agalactiae after 24 hrs by microdilution method; assay type: functional
[4] = Chemical stability of compound at 50 to 500 mg/L at pH 5 after 24 hrs at room temperature by LC-MS analysis; assay type: physicochemical; details: buffer, pH 5, 24 h
TERT-RPE1 [5] = experiment: Induction of apoptosis in human RPE1 cells assessed as caspase 3/7 activation up to 80 mg/L after 4 hrs by caspase-Glo 3/7 luminescent assay; assay type: cell-based; details: tert-rpe1, 4 h
Staphylococcus aureus [6] = experiment: Antibacterial activity against methicillin-resistant Staphylococcus aureus 4591 clinical isolates after 24 hrs by microdilution method; assay type: functional; details: Staphylococcus aureus, 4591, 24 h
Bacillus subtilis [7] = experiment: Antibacterial activity against Bacillus subtilis assessed as inhibition of plasma membrane lipids synthesis at 2 mg/L after 50 mins by [3H]-sodium acetate incorporation assay; assay type: functional
TERT-RPE1 [8] = experiment: Cytotoxicity against human RPE1 cells assessed as reduction in cell viability after 48 hrs by ATPlite reagent based assay; details: tert-rpe1, 48 h
TERT-RPE1 [9] = experiment: Cytotoxicity against human RPE1 cells assessed as disruption of cell membrane integrity after 4 hrs by CytoTox-ONE-based assay; details: tert-rpe1, 4 h
Burkholderia multivorans = experiment: Antibacterial activity against Burkholderia multivorans after 24 hrs by microdilution method; assay type: functional
BJ = experiment: Cytotoxicity against human BJ cells assessed as reduction in cell viability after 48 hrs by ATPlite reagent based assay
[10] = Chemical stability of compound at 50 to 500 mg/L at pH 8.8 after 24 hrs at room temperature by LC-MS analysis; assay type: physicochemical; details: buffer, pH 8.8, 24 h
Pseudomonas aeruginosa [11] = experiment: Antibacterial activity against Pseudomonas aeruginosa CCM 3955 after 24 hrs by microdilution method; assay type: functional; details: CCM 3955, 24 h
Salmonella enteritidis = experiment: Antibacterial activity against Salmonella enteritidis S2-25 after 24 hrs by microdilution method; assay type: functional, Salmonella enterica subsp. enterica serovar Enteritidis; details: Salmonella enterica, S2-25, 24 h
[12] = tested on: Staphylococcus epidermidis; experiment: Antibacterial activity against Staphylococcus epidermidis 8700/B after 24 hrs by microdilution method; assay type: functional
Bacillus subtilis [13] = experiment: Antibacterial activity against Bacillus subtilis assessed as inhibition of DNA synthesis at 2 mg/L after 50 mins by [3H]thymidine incorporation assay; assay type: functional
[14] = Chemical stability of compound at 50 to 500 mg/L at pH 8.8 after 24 hrs at 37 degC by LC-MS analysis; assay type: physicochemical; details: buffer, pH 8.8, 24 h
Acinetobacter baumannii = experiment: Antibacterial activity against Acinetobacter baumannii A3-08 after 24 hrs by microdilution method; assay type: functional; details: A3-08, 24 h
[15] = tested on: Stenotrophomonas maltophilia; experiment: Antibacterial activity against Stenotrophomonas maltophilia S2-23 after 24 hrs by microdilution method; assay type: functional; details: S2-23, 24 h
TERT-RPE1 [16] = experiment: Cytotoxicity against human RPE1 cells assessed as disruption of cell membrane integrity at >80 mg/L after 4 hrs by CytoTox-ONE-based assay; details: tert-rpe1, 4 h
Enterococcus faecalis = experiment: Antibacterial activity against Enterococcus faecalis CCM 4224 after 24 hrs by microdilution method; assay type: functional; details: CCM 4224, 24 h
[17] = tested on: Staphylococcus haemolyticus; experiment: Antibacterial activity against fluoroquinolne-resistant Staphylococcus haemolyticus 16568 after 24 hrs by microdilution method; assay type: functional; details: Staphylococcus haemolyticus, 16568, 24 h
Staphylococcus aureus [18] = experiment: Antibacterial activity against Staphylococcus aureus CCM 4223 after 24 hrs by microdilution method; assay type: functional; details: CCM 4223, 24 h
HepG2 [19] = experiment: Cytotoxicity against human HepG2 cells assessed as reduction in cell viability after 48 hrs by ATPlite reagent based assay; details: hepg2, 48 h
Bacillus subtilis [20] = experiment: Antibacterial activity against Bacillus subtilis assessed as inhibition of RNA synthesis at 2 mg/L after 50 mins by [3H]-uridine incorporation assay; assay type: functional
[21] = Apparent permeability across apical to basolateral side in human Caco2 cells at 200 uM after 3 hrs by LC-MS analysis; assay type: ADME, cell-based; details: caco-2, 3 h
[22] = Chemical stability of compound at 50 to 500 mg/L at pH 0.18 after 24 hrs at 37 degC by LC-MS analysis; assay type: physicochemical; details: buffer, pH 0.18, 24 h
Bacillus subtilis [23] = experiment: Antibacterial activity against Bacillus subtilis after 24 hrs by microdilution method; assay type: functional
Lipid bilayer [24] = experiment: Binding affinity to DOPG large unilamellar vesicle assessed as carboxyfluorescein leakage at 10 mg/L after 20 secs by fluorescence-based assay relative to control
Bacillus subtilis [25] = experiment: Antibacterial activity against Bacillus subtilis assessed as inhibition of protein synthesis at 2 mg/L after 50 mins by [35S]-methionine incorporation assay; assay type: functional
Bacillus subtilis [26] = experiment: Antibacterial activity against Bacillus subtilis assessed as inhibition of peptidoglycan synthesis at 2 mg/L after 50 mins by [3H]-N-acetylglucosamine incorporation assay; assay type: functional
Lipid bilayer [27] = experiment: Binding affinity to DOPC large unilamellar vesicle assessed as carboxyfluorescein leakage at 10 to 20 ug/ml after 20 secs by fluorescence-based assay relative to control
[28] = Chemical stability of compound at 50 to 500 mg/L at pH 5 after 24 hrs at 37 degC by LC-MS analysis; assay type: physicochemical; details: buffer, pH 5, 24 h
Escherichia coli [29] = experiment: Antibacterial activity against Escherichia coli CCM 3954 after 24 hrs by microdilution method; assay type: functional; details: CCM 3954, 24 h
Enterococcus faecium = experiment: Antibacterial activity against vancomycin-resistant Enterococcus faecium 419/ana clinical isolates after 24 hrs by microdilution method; assay type: functional
HepG2 [30] = experiment: Cytotoxicity against human HepG2 cells assessed as disruption of cell membrane integrity after 4 hrs by CytoTox-ONE-based assay; details: hepg2, 4 h
Lipid bilayer [31] = experiment: Binding affinity to DOPG large unilamellar vesicle assessed as carboxyfluorescein leakage at 10 ug/ml after 20 secs by fluorescence-based assay relative to control
Pseudomonas aeruginosa [32] = experiment: Antibacterial activity against Pseudomonas aeruginosa 16575 after 24 hrs by microdilution method; assay type: functional; details: Pseudomonas aeruginosa, 16575, 24 h

CCCCCCCCCCCCCCCOP(=O)(CCN(CCCN)CCCN)OC[C@H]1O[C@@H](n2ccc(=O)[nH]c2=O)[C@H](O)[C@@H]1O (some centres undefined)
MIC (Escherichia coli [1]): 25 µg/mL (≈ 37 µM)
Activity (HepG2 [2]): Non-Toxic
Stability [3]: Stable
MIC (Streptococcus agalactiae): 1.56 µg/mL (≈ 2.31 µM)
Stability [4]: Stable
Activity (TERT-RPE1 [5]): Non-Toxic
MIC (Staphylococcus aureus [6]): 1.56 µg/mL (≈ 2.31 µM)
inhibition (Bacillus subtilis [7]): inactive
Activity (TERT-RPE1 [8]): 34.8 mg/L
Activity (TERT-RPE1 [9]): 73.8 mg/L
MIC (Burkholderia multivorans): 50 µg/mL (≈ 74 µM)
Activity (BJ): 29.1 mg/L
Stability [10]: Stable
MIC (Pseudomonas aeruginosa [11]): 3.13 µg/mL (≈ 4.63 µM)
MIC (Salmonella enteritidis): 6.25 µg/mL (≈ 9.25 µM)
MIC [12]: 3.13 µg/mL (≈ 4.63 µM)
inhibition (Bacillus subtilis [13]): inactive
Stability [14]: Stable
MIC (Acinetobacter baumannii): 3.13 µg/mL (≈ 4.63 µM)
MIC [15]: 3.13 µg/mL (≈ 4.63 µM)
Activity (TERT-RPE1 [16]): Non-Toxic
MIC (Enterococcus faecalis): 50 µg/mL (≈ 74 µM)
MIC [17]: 3.13 µg/mL (≈ 4.63 µM)
MIC (Staphylococcus aureus [18]): 6.25 µg/mL (≈ 9.25 µM)
Activity (HepG2 [19]): 33.2 mg/L
inhibition (Bacillus subtilis [20]): inactive
permeability [21]: Impermeable
Stability [22]: Stable
MIC (Bacillus subtilis [23]): 3.13 µg/mL (≈ 4.63 µM)
Activity (Lipid bilayer [24]): Active
inhibition (Bacillus subtilis [25]): inactive
inhibition (Bacillus subtilis [26]): inactive
Activity (Lipid bilayer [27]): 20 to 35%
Stability [28]: Stable
MIC (Escherichia coli [29]): 6.25 µg/mL (≈ 9.25 µM)
MIC (Enterococcus faecium): 6.25 µg/mL (≈ 9.25 µM)
Activity (HepG2 [30]): Non-Toxic
fold change (FC) (Lipid bilayer [31]): 25
MIC (Pseudomonas aeruginosa [32]): 6.25 µg/mL (≈ 9.25 µM)
